Reference: patent US7259167B2, “Antimalarial and antiproliferative pharmacophore models, novel tryptanthrin compounds having increased solubility, and methods of making and using thereof” (United States of America as Represented by the Secretary of …, priority 2002, dated 2007)
Values after ≈ are worked out from the molar mass of the structure shown.

How the values were obtained:
[1] = test system: P. falciparum D6 (Sierra Leone) clone; test: Antimalarial activity assay in vitro ([3H]hypoxanthine incorporation), D6 clone; assay type: cell-based; settings: Plasmodium falciparum, Table 7, read-out: D-6
Method: (§1) The tryptanthrin compounds were examined for IC50 values against either the P. falciparum W2 (Indochina) or D6 (Sierra Leone) clones in vitro. See U.S. Pat. No. 6,284,772, which is herein incorporated by reference. The in vitro assays were conducted by using the semiautomated microdilution technique of Desjardins, et al. (1979) Antimicrob. Agents Chemther. 16:710-718 and the [^3H]hypoxanthine incorporation techniques of Chulay et al. (1983) Exp. Parasitol. 55:138-146, both of which are herein incorporated by reference. […] The clones were derived by direct visualization and micromanipulation from the patient isolates.
(§2) Test tryptanthrin compounds were initially dissolved in DMSO and diluted 400-fold in RPMI 1640 culture medium supplemented with 25 mM Hepes, 32 mM NaHCO3 and 10% Albumax I (GIBCO BRL, Grand Island, N.Y.). These solutions were subsequently serially diluted 2-fold with a Biomek 1000 (Beckman, Fullerton, Calif.) over 11 different concentrations. The parasites were exposed to serial dilutions of each compound for 48 hours and incubated at 37° C. with 5% O2, 5% CO2, and 90% N2 prior to the addition of [^3H]hypoxanthine. After a further incubation of 18 hours, parasite DNA was harvested from each microtiter well using a Packard Filtermate 196 Harvester (Meriden, Conn.) onto glass filters. Uptake of [^3H]hypoxanthine was measured with a Packard topcount scintillation counter.

[2] = test system: P. falciparum W2 (Indochina) clone; test: Antimalarial activity assay in vitro ([3H]hypoxanthine incorporation), W2 clone; assay type: cell-based; settings: Plasmodium falciparum, Table 7, read-out: W-2
Text: Although two P. falciparum malaria parasite clones, designated as Sierra Leone (D6) and Indochina (W2) were used in the susceptibility testing as disclosed in Example 1, the IC50 values obtained from the W2 clones were used as the activity parameter to develop the pharmacophore model as the D6 clone results closely paralleled the W2 clones. See U.S. Pat. No. 6,284,772, which is herein incorporated by reference.
as §1, §2

[3] = Cyclic voltammetry, redox potentials; assay type: physicochemical; parameters: unit not given here; settings: 1 mM in acetonitrile, 0.1 M tetrabutylammonium hexafluorophosphate, Ag-AgCl reference
Method: The redox potentials associated with electron transfer to the oxygen atoms in compounds was measured. Experiments were performed on a CV-50W Voltammetric analyzer with a C2 cell stand (Bioanalytical systems, West Lafayette Ind.).
Cyclic voltammetry experiments were performed on a CV-50W Voltammetric analyzer with a C2 cell stand (Bioanalytical systems, West Lafayette Ind.). A glassy carbon working, an Ag—AgCl reference electrode and a Pt auxiliary electrode were used in a 5 ml glass cell. All samples were dissolved in dry acetonitrile (Aldrich, St. Louis, Mo.) with 0.1 M tetrabutylammonium hexafluorophosphate (Aldrich, St. Louis, Mo.) as the supporting electrolyte. Each analog was prepared at a concentration of 1 mM and was degassed with nitrogen for 5 minutes prior to analysis. Samples were run at several scan rates ranging from 20 to 1000 mV/s. See Smyth, M. R., and Vos, J. G. Analytical Voltammetry; Elsevier: New York, 1992; Chapter 1, which is herein incorporated by reference.

[4] = Hemin binding activity assay by 1H NMR (pseudocontact shifts); settings: for Maximum induced Δδ: hemin induced pseudocontact chemical shift; for Maximum induced Δδ / Concentration dependence Δδ: DMSO-d6; for Concentration dependence Δδ: slope of Δδ v. hemin concentration
Method: (§3) As provided in Example 5, the hemin binding affinity for a series of tryptanthrin compounds with functional groups at the 8-position with different electron donating/withdrawing characteristics corresponding with the pharmacophore model of the present invention was determined by ^1H NMR. The binding interaction was measured as a function of the induced up-field shift in the chemical shift as a function of increasing hemin concentration. ^1H spectra of selected compounds each analog with an increasing concentration of hemin were collected and analyzed for the effect of the pseudocontact shifts.
It is well known that bio-molecules containing the paramagnetic species Fe^+3 induce via pseudocontact effect (a thru-space paramagnetic interaction, similar to the thru-space diopolar interaction or NOE) up-field chemical shifts of the ^1H, ^13C, ^15N atoms of bound ligands. See Serge Moreau et al. (1985) Biochemica et. Biophysica Acta 107-116; Alam, S. L., et al. (1998) J. Biomol. NMR 11:119-133; and Kalodimos, C. G., et al. (2000) J. Inorg. Biochem. 79:371-380, which are herein incorporated by reference. […] See Crowley, P. B., et al. (2001) J. Am. Chem. Soc. 123:10444-10453, which is herein incorporated by reference. Consequently, the closer a particular proton on the ligand is to the Fe^+3 atom, the greater the induced Δδ.
as §3, with “The” for “As provided in Example 5, the”, “using” for “by”, “of” for “of selected compounds”
To each sample, a 100 or 200 μl aliquot of a known concentration of hemin dissolved in 1.0 ml of DMSO-d6 was added. The concentrations of the tryptanthrin compounds compounds ranged from 3.0 to 8.0 mg per 500 μl of DMSO. A corresponding solution of hemin in DMSO was prepared to maintain a molar ratio of tryptanthrin compounds to hemin in the range of 1:1.0 to 1:1.5.
All ^1H NMR data was collected using a Bruker Avance-600 spectrometer using methods known in the art. See e.g. Wang, J., et al. (2001) J. Am. Chem. Soc. 123:8080-8088, which is herein incorporated by reference. The proton spectra were collected at 300 K, using a spectral width of 9090.9 Hz. All spectra were acquired with 64k data points in F2. All chemical shifts were referenced internally to TMS (0.00 ppm). The spectra were processed using XWINNMR (Bruker BioSpin Corporation, Billerica, Mass.) on a Silicon Graphics O2 workstation (Silicon Graphics, Mountain View, Calif.). Each data set was multiplied by a Gaussain window function with 0.3 Hz line broadening in each dimension before transformation.

malaria parasites = test: In vivo testing (modified Thompson test), mouse malaria; parameters: species or system mice
Text: The in vivo efficacy of the compounds of the present invention alone or in combination with an adjuvant can be determined in a modified Thompson test. This test measures the survivability of mice and parasitemia clearance following administration of the compound or composition of the invention on days 3-5 post infection. In brief, 5×10^5 malaria parasites of one or more of the four described strains are inoculated intraperitoneally to female mice that weight approximately 24-30 g. Each compound was dissolved in 5% sodium bicarbonate, and was administered p.o. twice daily from day 3 to day 5 postinfection. Total dosage of the compounds of the invention is 0.001 to 1000 mg/kg. The percent suppression of parasitemia in the treated mice compared to untreated controls is determined for each test compound. Survival of mice to day 60 post infection is considered a cure. Compounds are considered active when the survival time of the treated mice is greater than twice the control mice.
The test of the six compounds identified above were conducted by subcutaneous dosing in peanut oil. Formulated in peanut oil and injected s.c. (N=8) at various doses up to 190 mg/kg. […] Although parasites were not cleared, the survival of infected mice doubled that of the control. Life expectancy was 12-14 days compared to 6-7 days in the control (parasitized, untreated).

Structure (SMILES)	IC50 [1] [ng/mL]	IC50 [2] [ng/mL]	Redox1 [3]	Redox 2 [3]	Maximum induced Δδ [4] [ppm]	Concentration dependence Δδ [4] [ppm/mole %]	other results
O=C1c2ccc(Cl)cc2-n2c1nc1ncccc1c2=O [DN48]					0.389	0.119	
COc1ccc2c(c1)C(=O)c1nc3ncccc3c(=O)n1-2 [DN23]					0.208	0.119	
O=C1c2cc(F)ccc2-n2c1nc1ncccc1c2=O [DN63]					0.360	0.1366	
O=C1c2cc([N+](=O)[O-])ccc2-n2c1nc1ncccc1c2=O [DN40]					1.538	0.4159	maximum pseudocontact shift relative to DN48 ([4]; compared with DN48): approximately 3 times
O=C1c2cc(OC(F)(F)F)ccc2-n2c1nc1ncccc1c2=O [DN9]					0.462	0.08951	
O=C1c2cc(F)ccc2-n2c1nc1ccccc1c2=O [WR^282611]							survival of infected mice relative to control (malaria parasites; 190 mg/kg s.c. in peanut oil): doubled; Life expectancy (malaria parasites; 190 mg/kg s.c. in peanut oil, control 6-7 days): 12 to 14 days; activity (malaria parasites; max. dosage 190 mg/kg s.c. in peanut oil): exhibited activity

Further lines, with some results ahead:

IC50 [1] [ng/mL]	IC50 [2] [ng/mL]	Redox1 [3]	Redox 2 [3]	Maximum induced Δδ [4] [ppm]	Concentration dependence Δδ [4] [ppm/mole %]	Structure (SMILES)	other results
10.5 (≈ 0.0275 µM)	4.27 (≈ 0.0112 µM)	−692	−1324			CN1CCN(c2ccc3c(=O)n4c(nc3c2)C(=O)c2cc(Cl)ccc2-4)CC1 [WR281588]	
6.77 (≈ 0.0225 µM)	4.74 (≈ 0.0158 µM)	−586	−1242			O=C1c2cc(Cl)ccc2-n2c1nc1cc(F)ccc1c2=O [WR281583]	
2.31 (≈ 0.00566 µM)	1.25 (≈ 0.00307 µM)	−600	−1252			O=C1c2cc(OC(F)(F)F)ccc2-n2c1nc1cc(SCCO)ccc1c2=O [WR281525]	
95.3 (≈ 0.236 µM)	35.6 (≈ 0.0882 µM)	−640	−1230			COc1cccc2c(=O)n3c(nc12)C(=O)c1cc(I)ccc1-3 [WR281635]	
70.1 (≈ 0.146 µM)	36.8 (≈ 0.0764 µM)	−709	−1375			CCCCCCCC(=O)OCCN(C)c1ccc2c(=O)n3c(nc2c1)C(=O)c1cc(Cl)ccc1-3 [WR281591]	
2.57 (≈ 0.00904 µM)	1.58 (≈ 0.00557 µM)	−593	−1219			O=C1c2cc(F)ccc2-n2c1nc1c(F)cccc1c2=O [WR281631]	
4.12 (≈ 0.0121 µM)	2.46 (≈ 0.00723 µM)	−630	−1281			CN(CCO)c1ccc2c(=O)n3c(nc2c1)C(=O)c1cc(F)ccc1-3 [WR281523]	
97.1 (≈ 0.265 µM)	58.1 (≈ 0.159 µM)	−696	−1348			O=C1c2cc(Cl)ccc2-n2c1nc1cc(N3CCCCC3)ccc1c2=O [WR281647]	
